Assay results from patent US6608086B2, “Dihydropyridines and new uses thereof” (Synaptic Pharmaceutical Corporation, priority 1993, dated 2003).
Like-named read-outs stand apart in the source and are kept apart here.

Legend:
[1] = target: T1, L-type calcium channel (Rattus norvegicus, UniProt P22002); assay: Competition binding of [3H]nitrendipine to membrane fragments of rat cardiac muscle
T1 construct: membrane fragments of rat cardiac muscle; from tissue; host or cells: rat cardiac muscle membranes
T1 sequence (P22002 whole entry, other chains not shown, the tested form may be a part): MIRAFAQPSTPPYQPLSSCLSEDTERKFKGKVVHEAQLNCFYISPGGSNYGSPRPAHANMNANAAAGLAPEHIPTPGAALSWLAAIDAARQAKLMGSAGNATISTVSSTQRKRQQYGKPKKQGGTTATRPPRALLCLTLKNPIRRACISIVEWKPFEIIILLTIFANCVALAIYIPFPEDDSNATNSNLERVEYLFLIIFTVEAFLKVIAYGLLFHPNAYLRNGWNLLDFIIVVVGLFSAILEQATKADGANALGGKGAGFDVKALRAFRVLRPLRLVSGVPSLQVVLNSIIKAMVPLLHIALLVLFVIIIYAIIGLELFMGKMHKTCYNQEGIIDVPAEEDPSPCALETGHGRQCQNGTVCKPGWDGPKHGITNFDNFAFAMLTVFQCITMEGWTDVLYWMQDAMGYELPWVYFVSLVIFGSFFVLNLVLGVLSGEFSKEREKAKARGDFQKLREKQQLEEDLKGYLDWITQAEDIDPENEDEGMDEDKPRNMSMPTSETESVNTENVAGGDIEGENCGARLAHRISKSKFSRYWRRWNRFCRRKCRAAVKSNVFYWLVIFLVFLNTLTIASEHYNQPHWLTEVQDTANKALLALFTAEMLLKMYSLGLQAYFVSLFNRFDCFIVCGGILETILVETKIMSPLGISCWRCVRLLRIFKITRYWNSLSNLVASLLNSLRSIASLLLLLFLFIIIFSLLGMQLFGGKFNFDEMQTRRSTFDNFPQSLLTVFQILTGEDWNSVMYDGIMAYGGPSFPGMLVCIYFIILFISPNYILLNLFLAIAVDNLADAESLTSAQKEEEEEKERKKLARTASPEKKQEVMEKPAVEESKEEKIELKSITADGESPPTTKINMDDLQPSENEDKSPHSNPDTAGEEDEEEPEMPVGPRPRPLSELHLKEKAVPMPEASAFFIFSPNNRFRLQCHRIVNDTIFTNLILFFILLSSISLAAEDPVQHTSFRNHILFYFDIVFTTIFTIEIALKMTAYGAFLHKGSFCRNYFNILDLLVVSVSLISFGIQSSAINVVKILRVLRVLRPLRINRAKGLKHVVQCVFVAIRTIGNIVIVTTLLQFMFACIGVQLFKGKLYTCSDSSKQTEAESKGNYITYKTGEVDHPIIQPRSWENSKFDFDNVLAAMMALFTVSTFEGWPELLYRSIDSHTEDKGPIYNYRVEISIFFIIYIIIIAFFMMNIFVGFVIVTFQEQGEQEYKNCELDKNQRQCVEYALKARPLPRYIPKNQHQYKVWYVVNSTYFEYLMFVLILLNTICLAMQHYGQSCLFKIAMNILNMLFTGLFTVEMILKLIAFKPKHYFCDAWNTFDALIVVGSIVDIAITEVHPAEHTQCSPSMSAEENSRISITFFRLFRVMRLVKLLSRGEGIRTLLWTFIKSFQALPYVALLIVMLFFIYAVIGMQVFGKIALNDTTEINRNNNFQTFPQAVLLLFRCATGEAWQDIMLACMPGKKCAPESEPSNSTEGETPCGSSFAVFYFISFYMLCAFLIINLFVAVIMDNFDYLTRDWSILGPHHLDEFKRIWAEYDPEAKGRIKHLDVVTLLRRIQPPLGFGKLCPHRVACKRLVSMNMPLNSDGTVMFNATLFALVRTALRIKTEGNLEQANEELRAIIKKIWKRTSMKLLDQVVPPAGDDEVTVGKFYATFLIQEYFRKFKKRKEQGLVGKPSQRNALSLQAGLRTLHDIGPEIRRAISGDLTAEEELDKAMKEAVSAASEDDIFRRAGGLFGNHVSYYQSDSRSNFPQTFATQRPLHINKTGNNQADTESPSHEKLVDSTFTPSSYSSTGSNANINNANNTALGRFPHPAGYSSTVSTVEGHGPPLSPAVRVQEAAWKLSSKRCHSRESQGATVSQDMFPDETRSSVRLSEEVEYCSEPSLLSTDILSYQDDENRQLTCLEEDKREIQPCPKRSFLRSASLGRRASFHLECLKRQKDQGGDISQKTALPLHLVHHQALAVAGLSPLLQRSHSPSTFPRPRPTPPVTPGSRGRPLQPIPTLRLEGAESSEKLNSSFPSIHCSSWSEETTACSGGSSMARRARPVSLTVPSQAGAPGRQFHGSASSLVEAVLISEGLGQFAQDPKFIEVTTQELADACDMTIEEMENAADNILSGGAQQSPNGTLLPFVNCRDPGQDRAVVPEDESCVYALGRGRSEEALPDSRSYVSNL
T1 sequence (P54290 25-944 partner limits assumed, other chains not shown): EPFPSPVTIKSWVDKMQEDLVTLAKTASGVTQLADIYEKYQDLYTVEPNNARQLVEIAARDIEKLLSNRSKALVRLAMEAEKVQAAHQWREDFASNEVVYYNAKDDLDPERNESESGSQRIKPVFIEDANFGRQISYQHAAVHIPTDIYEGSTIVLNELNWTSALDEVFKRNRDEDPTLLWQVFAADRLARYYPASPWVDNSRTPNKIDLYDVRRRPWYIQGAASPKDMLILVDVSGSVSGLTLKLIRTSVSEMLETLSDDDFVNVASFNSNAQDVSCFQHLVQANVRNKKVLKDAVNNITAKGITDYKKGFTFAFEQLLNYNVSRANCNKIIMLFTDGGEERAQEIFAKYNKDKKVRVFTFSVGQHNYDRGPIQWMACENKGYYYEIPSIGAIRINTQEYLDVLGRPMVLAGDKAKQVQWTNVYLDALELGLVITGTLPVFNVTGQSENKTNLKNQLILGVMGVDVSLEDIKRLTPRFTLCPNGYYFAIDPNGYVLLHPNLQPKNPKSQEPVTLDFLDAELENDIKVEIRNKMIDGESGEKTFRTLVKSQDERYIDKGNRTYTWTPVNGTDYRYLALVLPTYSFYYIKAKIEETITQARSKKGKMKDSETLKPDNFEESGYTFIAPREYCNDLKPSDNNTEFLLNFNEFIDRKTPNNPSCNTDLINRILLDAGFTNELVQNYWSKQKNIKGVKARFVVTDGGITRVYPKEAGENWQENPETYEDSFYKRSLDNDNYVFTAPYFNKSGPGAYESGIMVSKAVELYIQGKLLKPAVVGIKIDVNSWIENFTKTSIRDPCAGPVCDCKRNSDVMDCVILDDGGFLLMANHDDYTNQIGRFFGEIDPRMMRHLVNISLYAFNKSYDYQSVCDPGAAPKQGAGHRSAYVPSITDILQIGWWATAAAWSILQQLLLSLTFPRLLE
T1 sequence (P54290 945-1091 partner limits assumed, other chains not shown): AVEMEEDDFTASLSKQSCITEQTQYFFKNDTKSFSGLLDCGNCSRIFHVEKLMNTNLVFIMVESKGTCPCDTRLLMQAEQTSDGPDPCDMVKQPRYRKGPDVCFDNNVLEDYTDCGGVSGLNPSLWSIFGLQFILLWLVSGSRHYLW

[2] = target: T2, α1C Human Adrenergic Receptor (Homo sapiens, UniProt P35348); assay: Radioligand binding, [3H]prazosin, cloned human α1C adrenergic receptor; settings: LM(tk-) cell membranes
T2 construct: The entire coding region of α1C (1401 bp); expressed in transfected cells
T2 sequence (P35348 1-466): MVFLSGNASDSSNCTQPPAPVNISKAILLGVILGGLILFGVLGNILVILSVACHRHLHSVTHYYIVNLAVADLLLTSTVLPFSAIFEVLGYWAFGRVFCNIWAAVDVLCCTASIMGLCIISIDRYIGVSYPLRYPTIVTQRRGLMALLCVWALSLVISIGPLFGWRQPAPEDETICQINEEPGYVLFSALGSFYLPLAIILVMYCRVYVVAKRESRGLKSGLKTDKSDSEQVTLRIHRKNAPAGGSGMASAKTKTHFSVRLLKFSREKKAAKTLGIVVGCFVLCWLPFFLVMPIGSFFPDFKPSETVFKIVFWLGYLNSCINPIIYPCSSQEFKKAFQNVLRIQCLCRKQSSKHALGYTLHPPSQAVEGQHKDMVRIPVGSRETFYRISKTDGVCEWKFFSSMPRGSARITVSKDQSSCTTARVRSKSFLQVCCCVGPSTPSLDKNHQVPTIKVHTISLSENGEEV
Summary of the method: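 Read-out is filter-retained [3H]prazosin (0.5 nM) bound to membranes of LM(tk−) cells stably carrying the human α1C receptor. Incubation ran 20 min at 37° C. at pH 7.5, with 10 μM phentolamine marking nonspecific binding.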

[3] = target: T3, α2B receptor (Homo sapiens, UniProt P18089); assay: Competition binding, [3H]rauwolscine, human α2B receptor
T3 construct: host or cells: LM(tk-) cells, line L-NGC-α2B
T3 sequence (P18089 1-450): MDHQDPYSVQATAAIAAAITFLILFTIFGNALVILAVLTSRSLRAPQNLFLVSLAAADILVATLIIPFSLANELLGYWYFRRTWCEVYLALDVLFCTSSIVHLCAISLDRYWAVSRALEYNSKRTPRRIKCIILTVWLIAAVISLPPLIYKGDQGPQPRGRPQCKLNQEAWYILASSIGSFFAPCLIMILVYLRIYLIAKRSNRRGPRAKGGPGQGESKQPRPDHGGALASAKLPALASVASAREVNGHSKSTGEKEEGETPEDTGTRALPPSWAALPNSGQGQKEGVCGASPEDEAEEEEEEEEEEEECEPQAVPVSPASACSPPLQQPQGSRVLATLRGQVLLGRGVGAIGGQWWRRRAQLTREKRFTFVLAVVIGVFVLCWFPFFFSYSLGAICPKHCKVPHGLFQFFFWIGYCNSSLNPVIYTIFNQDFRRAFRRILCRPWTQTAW
Summary of the method: (§1)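 Lysates of LM(tk−) cells stably expressing human α2A, α2B or α2C receptors in 25 mM glycylglycine pH 7.6. Equilibrium competition against 0.5 nM [3H]rauwolscine, with 10 μM phentolamine defining nonspecific binding. Bound ligand separated by GF/B filtration.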

[4] = target: T4, α2C receptor (Homo sapiens, UniProt P18825); assay: Competition binding, [3H]rauwolscine, human α2C receptor
T4 construct: host or cells: LM(tk-) cells, line L-α2C
T4 sequence (P18825 1-462): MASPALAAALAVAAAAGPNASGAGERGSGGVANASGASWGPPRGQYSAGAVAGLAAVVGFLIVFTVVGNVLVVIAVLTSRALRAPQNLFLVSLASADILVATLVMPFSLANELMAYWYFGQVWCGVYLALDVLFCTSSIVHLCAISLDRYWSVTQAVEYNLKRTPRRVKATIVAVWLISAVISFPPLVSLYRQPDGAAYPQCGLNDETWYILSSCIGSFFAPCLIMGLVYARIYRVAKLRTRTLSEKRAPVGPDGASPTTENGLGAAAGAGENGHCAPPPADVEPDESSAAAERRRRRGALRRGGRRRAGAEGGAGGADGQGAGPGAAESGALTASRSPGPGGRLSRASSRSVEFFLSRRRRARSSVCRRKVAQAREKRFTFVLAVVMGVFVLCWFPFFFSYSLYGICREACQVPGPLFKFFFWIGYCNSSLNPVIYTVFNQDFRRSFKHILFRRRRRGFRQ
Summary of the method: as §1

[5] = cloned human receptor, mean, read-out: PKi alpha-1 1c (converted)
[6] = [3H]nitrendipine, rat cardiac muscle membranes, mean, read-out: PKi Ca (converted)
[7] = [3H]rauwolscine, human receptor, LM(tk-) cell lysates, mean, read-out: PKi alpha-2 2c (converted)
[8] = cloned human α1C receptor, read-out: PKi alpha-1 1c (converted)

Structure (SMILES) | Ki ([1]; PKi Ca) | Ki [2, 5] | Ki ([3]; PKi alpha-2 2b) | melting point | Ki ([4]; PKi alpha-2 2c) | other results
COC(=O)C1=C(C)NC(CCCCN)=C(C(=O)NCCCN2CCC(c3ccccc3)(c3ccccc3)CC2)C1c1ccc([N+](=O)[O-])cc1 (stereo not drawn) [Example 170, 2-(4-Aminobutyl)-1,4-dihydro-5-methoxycarbonyl-6-methyl-4-(4-nitrophenyl)-3-{N-[3-(4,4-diphenylpiperidin-1-yl)propyl]}carboxamidopyridine] | 2400 nM | 1.26 nM | 8710 nM | 89 to 93 °C | 4900 nM | –
CCC1=C(C(N)=O)C(c2ccc([N+](=O)[O-])cc2)C(C(=O)NCCCN2CCC(c3ccccc3)(c3ccccc3)CC2)=C(CCCCN)N1 (stereo not drawn) [Example 171, 2-(4-Aminobutyl)-5-carboxamido-6-ethyl-1,4-dihydro-4-(4-nitrophenyl)-3-{N-[3-(4,4-diphenylpiperidin-1-yl)propyl]}carboxamidopyridine] | – | – | – | 85 to 89 °C | – | Ki [1, 6]: 18600 nM; Ki ([2]; PKi alpha-1 1c, cloned human receptor, mean): 1.74 nM; Ki ([3]; PKi alpha-2 2b, [3H]rauwolscine, human receptor, LM(tk-) cell lysates, mean): 2000 nM; Ki [4, 7]: 575 nM
COC(=O)C1(c2ccccc2)CCN(CCCNC(=O)C2=C(CCCCN)NC(C)=C(C(N)=O)C2c2ccc([N+](=O)[O-])cc2)CC1 (stereo not drawn) [Example 177, 2-(4-Aminobutyl)-5-carboxamido-1,4-dihydro-3-{N-[3-(4-methoxycarbonyl-4-phenylpiperidin-1-yl)propyl]}carboxamido-6-methyl-4-(4-nitrophenyl)pyridine] | 93300 nM | 4.68 nM | 2880 nM | 81 to 84 °C | 832 nM | –
CCNC(=O)C1=C(CC)NC(CC)=C(C(=O)NCCCN2CCC(C(=O)OCC)(c3ccccc3)CC2)C1c1ccc([N+](=O)[O-])cc1 (stereo not drawn) [Example 182, 2,6-Diethyl-1,4-dihydro-3-{N-[3-(4-ethoxycarbonyl-4-phenylpiperidin-1-yl)propyl]}carboxamido-5-(N-ethyl)carboxamido-4(4-nitrophenyl)pyridine] | 355000 nM | 2.24 nM | 912 nM | 103 to 104 °C | 1150 nM | –
CCOC(=O)C1(c2ccccc2)CCN(CCCNC(=O)C2=C(COCCN)NC(CC)=C(C(=O)OC)C2c2ccc([N+](=O)[O-])cc2)CC1 (stereo not drawn) [Example 197, 2-[(2-Aminoethoxy)methyl]-3-{N-[3-(4-ethoxycarbonyl-4-phenylpiperidin-1-yl)propyl]}carboxamido-1,4-dihydro-6-ethyl-5-methoxycarbonyl-4-(4-nitrophenyl) pyridine] | 6310 nM | 0.55 nM | 2340 nM | 45 to 47 °C | 513 nM | –
CC1=C(C(N)=O)C(c2ccc([N+](=O)[O-])cc2)C(C(=O)NCCCN2CCC(C(=O)O)(c3ccccc3)CC2)=C(C)N1 (stereo not drawn) [Example 210, 5-Carboxamido-3-{N-[3-(4-carboxy-4-phenylpiperidin-1-yl)propyl]}carboxamido-1,4-dihydro-2,6-dimethyl-4-(4-nitrophenyl)pyridine] | 933 nM | 93.3 nM | 23400 nM | 208 to 210 °C | 21900 nM | –
CCC1=C(C(=O)NC)C(c2ccc([N+](=O)[O-])cc2)C(C(=O)NCCCN2CCC(c3ccccc3)(c3ccccc3)CC2)=C(COCCN)N1 (stereo not drawn) [Example 225, 2-((2-Aminoethyl)oxy)methyl-6-ethyl-1,4-dihydro-5-N-methylcarboxamido-4-(4-nitro)phenyl-3-(3-(N-(4,4-diphenylpiperidin-1-yl)propyl))carboxamidopyridine] | 2570 nM | 3.98 nM | 2510 nM | 115 °C (dec.) | 417 nM | –
CCC1=C(C(=O)NC)C(c2ccc([N+](=O)[O-])cc2)C(C(=O)NCCCN2CCC(C(=O)OC)(c3ccccc3)CC2)=C(COCCN)N1 (stereo not drawn) [Example 229, 2-((2-Aminoethyl)oxy)methyl-6-ethyl-1,4-dihydro-3-(N-(3-(4-methoxycarbonyl-4-phenylpiperidin-1-yl)propyl))carbo xamido-5-N-methylcarboxamido-4-(4-nitro)phenylpyridine] | – | 7.08 nM | – | 95 °C (dec.) | – | Ki [1, 6]: 100000 nM; Ki ([3]; [3H]rauwolscine, human receptor, LM(tk-) cell lysates, mean, read-out: PKi alpha-2 2b (converted)): 5370 nM; Ki [4, 7]: 891 nM
CCNC(=O)C1=C(CC)NC(COCCN)=C(C(=O)NCCCN2CCC(C(=O)OC)(c3ccccc3)CC2)C1c1ccc([N+](=O)[O-])cc1 (stereo not drawn) [Example 233, 2-((2-Aminoethyl)oxy)methyl-6-ethyl-5-N-ethylcarboxamido-1,4-dihydro-3-(N-(3-(4-methoxycarbonyl-4-phenylpiperidin-1-yl)propyl))carboxamido-4-(4-nitro)phenylpyridine] | 257 nM | 2.14 nM | 8710 nM | 112 °C (dec.) | 1660 nM | –
CCC1=C(C(=O)OC)C(c2ccc([N+](=O)[O-])cc2)C(C(=O)NCCCN2CCC(C(=O)OC)(c3ccccc3)CC2)=C(COCCN)N1 (stereo not drawn) [Example 235, 2-((2-Aminoethyl)oxy)methyl-6-ethyl-1,4-dihydro-5-methoxycarbonyl-3-(N-(3-(4-methoxycarbonyl-4-phenylpiperidin-1-yl)propyl))carboxamido-4-(4-nitro)phenylpyridine] | 166000 nM | 2.09 nM | 2950 nM | 140 °C (dec.) | 1020 nM | –
COC(=O)C1=C(C)NC(C)=C(C(=O)NCCCN2CCC(c3ccccc3)(c3ccccc3)CC2)C1c1cccc([N+](=O)[O-])c1 (stereo not drawn) [Example 249, 1,4-Dihydro-3-methoxycarbonyl-2,6-dimethyl-4-(3-nitrophenyl)-5-(N-(3-(4,4-diphenylpiperidin-1-yl)propyl)carboxamido)-pyridine] | 30.9 nM | – | – | 192 to 193 °C | – | Ki [2, 8]: 0.389 nM; PKi alpha-2 2b [3]: 5.91; PKi alpha-2 2c [4]: 6.25
COC(=O)C1=C(C)NC(C)=C(C(=O)NCCCN2CCC(c3ccccc3)CC2)C1c1ccc2c(c1)OCO2 (stereo not drawn) [Example 250] | – | – | – | 161 to 165 °C | – | Ki ([1]; [3H]nitrendipine, rat cardiac muscle membranes, L-type calcium channel, read-out: PKi Ca (converted)): 13200 nM; Ki [2, 8]: 1.1 nM; Ki ([3]; [3H]rauwolscine, human α2B receptor, LM(tk-) cells, read-out: PKi alpha-2 2b (converted)): 39.8 nM; Ki ([4]; [3H]rauwolscine, human α2C receptor, LM(tk-) cells, read-out: PKi alpha-2 2c (converted)): 36.3 nM
